Laboratory results: US20240067603A1, “CUBANYL BIGUANIDE COMPOUNDS” (REGENTS OF THE UNIVERSITY OF MINNESOTA, priority 2020, published 2024)

How the values were obtained:
MCF-7 tumors = test: MCF-7 ER+ mammary tumor model; format: in vivo, mice
mm001 = test: Oxygen consumption rate (OCR), mm001; format: cell-based, mouse (C57BL/6)
Experimental: (§1) Measurement of oxygen consumption rate (OCR). Cells were maintained in growth medium consisting of 10% FBS at 37° C. with 5% CO2 and seeded at 25,000 cells per well in a 96-well XF96 cell culture microplates (Agilent, Santa Clara, CA). An 96 well XF sensor cartridge was hydrated and equilibrated with 200 ul calibrant in each well at 37° C. without CO2 overnight. Growth media was replaced with 150 μL DMEM based assay media (a non-buffered medium including 2 mM L-glutamine but no sodium bicarbonate (buffering agent), glucose, or sodium pyruvate, Agilent, Santa Clara, CA) the next day and cells were incubated CO2 free for 1 hour before the measurement of OCR by a Seahorse XFe Extracellular Flux Analyzer (Agilent, Santa Clara, CA), which measures uptake and excretion of metabolic end products in real time. After baseline measurements, 20 μl assay medium containing control vehicle or drugs were injected into corresponding wells. OCRs were measured periodically and can be reported in pmoles/minute or normalized against baseline measurements before treatment.

EO771 = test: Oxygen consumption rate (OCR), EO771; format: cell-based, mouse (C57BL/6)
Experimental: as §1

MCF-7 cells = test: Oxygen consumption rate (OCR), Seahorse XFe, MCF-7; format: cell-based, human
Experimental: FIGS. 3A-3B. Effects of DCB (FIG. 3B) and HCB (FIG. 3A) on MCF-7 cells respiration. MCF-7 cells were seeded at 25,000 cells/well into a 96-well XF96 cell microplate. Growth media was replaced with 150 μL metabolism assay media the next day and cells were incubated CO2 free for 1 hour before the measurement of oxygen consumption rate (OCR) every seven minutes by a Seahorse XFe analyzer. Drugs were injected into the media after the fifth measurement (indicated by time point A and the dashed line). Results are reported as mean of percent of base OCR (OCR of the fifth measurement)±S.D. (n=12 for DMSO and 16 for treatment groups).
Measurement of oxygen consumption rate (OCR). Cells were maintained in growth medium consisting of 10% FBS at 37° C. with 5% CO2 and seeded at 25,000 cells per well in a 96-well XF96 cell culture microplates (Agilent, Santa Clara, CA). An 96 well XF sensor cartridge was hydrated and equilibrated with 200 ul calibrant in each well at 37° C. without CO2 overnight. […] OCRs were measured periodically and can be reported in pmoles/minute or normalized against baseline measurements before treatment.

CYP3A4 = CYP3A4 (Homo sapiens, UniProt P08684); test: CYP3A4 binding by Soret band spin shift analysis; details: FIG. 16, read-out: estimated Kd
Experimental: HCB induces a low-to-high spin transition in 3A4, meaning that it binds within the active site near the heme (FIG. 16).
A. HBB binds soluble CYP3A4 Δ3-22, dependent on the heme iron. The HBB binding spectrum is shown in red. Control spectra with dithionite reduction (blue) and CO adduct formation (green) are shown as well as untreated CYP3A4 Δ3-22 (black). B. HBB docked to truncated CYP3A4 Δ3-22 induces a low to high spin shift (left) with a Ks=74±7 μM (right). (FIG. 16)

Sequence of CYP3A4 (P08684 with tags, fused parts or gaps): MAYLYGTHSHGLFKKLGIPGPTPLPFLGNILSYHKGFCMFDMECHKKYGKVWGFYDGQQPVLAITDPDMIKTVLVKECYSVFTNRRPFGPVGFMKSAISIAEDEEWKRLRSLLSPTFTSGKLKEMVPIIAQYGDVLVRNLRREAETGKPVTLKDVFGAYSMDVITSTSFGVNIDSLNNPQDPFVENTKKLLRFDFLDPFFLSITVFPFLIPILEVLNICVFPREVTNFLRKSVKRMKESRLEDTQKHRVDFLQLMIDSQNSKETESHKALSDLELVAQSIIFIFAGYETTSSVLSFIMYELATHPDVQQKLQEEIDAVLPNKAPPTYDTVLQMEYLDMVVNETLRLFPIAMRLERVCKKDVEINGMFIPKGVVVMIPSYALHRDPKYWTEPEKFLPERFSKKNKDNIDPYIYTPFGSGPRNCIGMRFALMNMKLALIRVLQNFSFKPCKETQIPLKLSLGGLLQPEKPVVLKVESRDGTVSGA

## CCCCCCNC(=N)NC(=N)NCc1ccccc1 [HBB, N1-hexyl-N5-benzyl-biguanide]
MCF-7 tumors; subcutaneous route at the MTD, compared with other route
  tumor control: equally effective
MCF-7 tumors; subcutaneous, MTD
  oxidative phosphorylation in ER+/HER2− MCF-7 tumors: inhibit oxidative phosphorylation

## CCCCCCNC(=N)NC(=N)NCC12C3C4C5C3C1C5C42 (stereo not shown) [HCB, Hexyl Cubanomethyl Biguanide]
mm001
  OCR Inhibition [HCB] (uM) v vs. control (P < 0.05): 10 µM
EO771
  OCR Inhibition [HCB] (uM) v vs. control (P < 0.05): 20 µM
MCF-7 cells; 10 μM, MCF-7 cells, FIGS. 3A-3B
  effect on oxidative phosphorylation (OCR): inhibited oxidative phosphorylation
MCF-7 cells; MCF-7
  OCR Inhibition [HCB] (uM) v vs. control (P < 0.05): 10 µM
CYP3A4
  Kd: 74 µM
